Measurements published in patent US9512087B2, “Hybrid molecules containing pharmacophores of fluconazole as antifungal agents and their preparation” (Council for Scientific & Industrial Research, priority 2011, dated 2016).
≈ marks a conversion by molar mass, not a printed value.

Legend:
Experiment in all cases: Antifungal MIC, broth dilution
C. albicans ATCC 24433 = format: cell-based, Candida albicans; settings: Candida albicans, ATCC24433, RPMI 1640 with MOPS, end point 48 hours; for MIC80: read-out: Ca01 A: MIC80; for MIC50: read-out: Ca01 B: MIC50
Description: (§1) The compounds of Formula 1 were tested for antifungal activity against Candida albicans, Aspergillus niger and Fusarium proliferatum. In vitro evaluation of antifungal activity was performed by determining the minimum inhibitory concentration (MIC) following standard methods (CLSI: Reference method for broth dilution antifungal susceptibility testing of yeasts; Approved standard, second edition M27-A2, 2002; CLSI: Reference method for broth dilution antifungal susceptibility testing of filamentous fungi; Approved standard M38-A, 2002). Anti-fungal susceptibility testing of these anti-fungal compounds was done by broth dilution method using RPMI 1640 medium with MOPS buffer. Known anti-fungal agents like fluconazole and amphotericin-B were used as positive control. End points were determined after 48 hours visually and by using spectrophotometer wherever necessary. Different dilutions were tried and various sets of experiments performed. The activity parameters are enumerated in Table 5.

C. glabrata ATCC 90030 = format: cell-based; settings: Nakaseomyces glabratus, ATCC90030, RPMI 1640 with MOPS, end point 48 hours, read-out: Cg01 MIC50
C. krusei ATCC 6258 = format: cell-based; settings: Pichia kudriavzevii, ATCC6258, RPMI 1640 with MOPS, end point 48 hours, read-out: Ck01 MIC50
C. tropicalis ATCC 750 = format: cell-based; settings: Candida tropicalis, ATCC750, RPMI 1640 with MOPS, end point 48 hours, read-out: Ct01 MIC50
C. neoformans ATCC 34664 = format: cell-based; settings: Cryptococcus neoformans, ATCC34664, RPMI 1640 with MOPS, end point 48 hours, read-out: Cn01 MIC50
A. niger ATCC 16404 = format: cell-based, Aspergillus niger; settings: Aspergillus niger, ATCC16404, RPMI 1640 with MOPS, end point 48 hours, read-out: An01 MIC50
Description: as §1

A. fumigatus ATCC 46645 = format: cell-based; settings: Aspergillus fumigatus, ATCC46645, RPMI 1640 with MOPS, end point 48 hours, read-out: Afm01 MIC50
[1] = test system: F. proliferatum ATCC 10052; format: cell-based, Fusarium proliferatum; settings: Fusarium proliferatum, ATCC10052, RPMI 1640 with MOPS, end point 48 hours, read-out: Fp01 MIC50
Description: as §1

Row | SMILES | MIC80 (C. albicans ATCC 24433) [µg/mL] | MIC50 (C. albicans ATCC 24433) [µg/mL] | MIC50 (C. glabrata ATCC 90030) [µg/mL] | MIC50 (C. krusei ATCC 6258) [µg/mL] | MIC50 (C. tropicalis ATCC 750) [µg/mL] | MIC50 (C. neoformans ATCC 34664) [µg/mL] | MIC50 (A. niger ATCC 16404) [µg/mL] | MIC50 (A. fumigatus ATCC 46645) [µg/mL] | MIC50 [1] [µg/mL]
1 | O=C(/C=C/c1ccc(Cl)cc1)c1ccc(OCC(O)(Cn2cncn2)c2ccc(F)cc2F)cc1 (stereo not drawn) [Compound 1A-6] | 0.25 (≈ 0.504 µM) | 0.5 (≈ 1.01 µM) | 0.5 (≈ 1.01 µM) | 2 (≈ 4.03 µM) | 0.5 (≈ 1.01 µM) | 0.5 (≈ 1.01 µM) | > 4 | > 4 | > 4
2 | OC(/C=C/c1ccc(Cl)cc1Cl)c1ccc(OCC(O)(Cn2cncn2)c2ccc(F)cc2F)cc1 (stereo not drawn) [Compound 1C-1, (E)-3-(2,4-dichlorophenyl)-1-(4-(2-(2,4-difluorophenyl)-2-hydroxy-3-(1H-1,2,4-triazol-1-yl)propoxy)phenyl)prop-2-en-1-ol] | 0.5 (≈ 0.939 µM) | 0.5 (≈ 0.939 µM) | 0.25 (≈ 0.47 µM) | 4 (≈ 7.51 µM) | 1 (≈ 1.88 µM) | 0.5 (≈ 0.939 µM) | > 4 | > 4 | > 4
3 | COc1ccc(/C=C/C(=O)c2ccc(OCC(O)(Cn3cncn3)c3ccc(Br)cc3)cc2)cc1 (stereo not drawn) [Compound 1A-11] | 1 (≈ 1.87 µM) | 0.5 (≈ 0.936 µM) | 1 (≈ 1.87 µM) | > 4 | > 4 | 1 (≈ 1.87 µM) | > 4 | > 4 | > 4
4 | OC(Cn1cncn1)(Cn1cncn1)c1ccc(F)cc1F [FLU, fluconazole] | 1 (≈ 3.27 µM) | 0.25 (≈ 0.816 µM) | 1 (≈ 3.27 µM) | 32 (≈ 104 µM) | 1 (≈ 3.27 µM) | 2 (≈ 6.53 µM) | > 128 | > 128 | > 128
5 | OC(COc1ccc(-c2cc(-c3ccc(Cl)cc3Cl)[nH]n2)cc1)(Cn1cncn1)c1ccc(F)cc1F (stereo not drawn) [Compound 1D-1, 1-(4-(5-(2,4-dichlorophenyl)-1H-pyrazol-3-yl)phenoxy)-2-(2,4-difluorophenyl)-3-(1H-1,2,4-triazol-1-yl)propan-2-ol] | 0.5 (≈ 0.922 µM) | 0.5 (≈ 0.922 µM) | 1 (≈ 1.84 µM) | 2 (≈ 3.69 µM) | 0.5 (≈ 0.922 µM) | 1 (≈ 1.84 µM) | > 4 | > 4 | > 4

Next, values leading:

Row | MIC80 (C. albicans ATCC 24433) [µg/mL] | MIC50 (C. albicans ATCC 24433) [µg/mL] | MIC50 (C. glabrata ATCC 90030) [µg/mL] | MIC50 (C. krusei ATCC 6258) [µg/mL] | MIC50 (C. tropicalis ATCC 750) [µg/mL] | MIC50 (C. neoformans ATCC 34664) [µg/mL] | MIC50 (A. niger ATCC 16404) [µg/mL] | MIC50 (A. fumigatus ATCC 46645) [µg/mL] | MIC50 [1] [µg/mL] | SMILES
6 | 0.5 (≈ 0.724 µM) | 0.25 (≈ 0.362 µM) | 0.5 (≈ 0.724 µM) | 2 (≈ 2.9 µM) | 1 (≈ 1.45 µM) | 0.5 (≈ 0.724 µM) | > 8 | > 8 | > 8 | O=C(c1ccc(OCC(O)(Cn2cncn2)c2ccc(F)cc2F)cc1)C(Br)C(Br)c1ccc(Cl)cc1Cl (stereo not drawn) [Compound 1B-1, 2,3-Dibromo-3-(2,4-dichlorophenyl)-1-(4-(2-(2,4-difluorophenyl)-2-hydroxy-3-(1H-1,2,4-triazol-1-yl)propoxy)phenyl)propan-1-one]
7 | 0.25 (≈ 0.526 µM) | 0.12 (≈ 0.252 µM) | 0.25 (≈ 0.526 µM) | 2 (≈ 4.21 µM) | 1 (≈ 2.1 µM) | 1 (≈ 2.1 µM) | > 4 | 8 (≈ 16.8 µM) | > 4 | Cc1ccc(C(=O)/C=C/c2ccc(OCC(O)(Cn3cncn3)c3ccc(F)cc3F)cc2)cc1 (stereo not drawn) [Compound 1A-21]
8 | 0.25 (≈ 0.471 µM) | 0.25 (≈ 0.471 µM) | 0.5 (≈ 0.943 µM) | 2 (≈ 3.77 µM) | 1 (≈ 1.89 µM) | 2 (≈ 3.77 µM) | > 4 | > 4 | > 4 | O=C(/C=C/c1ccc(Cl)cc1Cl)c1ccc(OCC(O)(Cn2cncn2)c2ccc(F)cc2F)cc1 (stereo not drawn) [Compound 1A-7, (E)-3-(2,4-dichlorophenyl)-1-(4-(2-(2,4-difluorophenyl)-2-hydroxy-3-(1H-1,2,4-triazol-1-yl)propoxy)phenyl)prop-2-en-1-one]
9 | 0.5 (≈ 0.972 µM) | 0.25 (≈ 0.486 µM) | 2 (≈ 3.89 µM) | > 4 | 2 (≈ 3.89 µM) | 4 (≈ 7.77 µM) | > 4 | > 4 | > 4 | Cn1cc(/C=C/C(=O)c2ccc(OCC(O)(Cn3cncn3)c3ccc(F)cc3F)cc2)c2ccccc21 (stereo not drawn) [Compound 1A-16]
10 | 0.25 (≈ 0.535 µM) | 0.12 (≈ 0.257 µM) | 0.25 (≈ 0.535 µM) | 8 (≈ 17.1 µM) | 0.5 (≈ 1.07 µM) | 1 (≈ 2.14 µM) | > 8 | > 8 | > 8 | O=C(/C=C/c1cccs1)c1ccc(OCC(O)(Cn2cncn2)c2ccc(F)cc2F)cc1 (stereo not drawn) [Compound 1A-13]
